# According to patent publication US11167006B2 (Shanghai Tianci Life Science Development Co., Ltd., priority 2016, dated 2021):
# “Also recorded” adds a separate entry of the source. Square brackets hold non-standard residues; d marks the D form. Peptide text beside a SMILES is read from it. NMeF = CN[C@@H](Cc1ccccc1)C(=O)O
# Assays:
# [1] = system: movement coordination of mice; assay: Movement coordination, RotaRod; assay type: in vivo, mouse; settings: subcutaneous 10 mg/kg
# Protocol: The movement coordination of the mice was detected by a ZB-200 RotaRod System. The mice were first trained for two days at a rotational speed of 16 r/min and continuously trained three times a day. The maximum movement time for each training was set to 300 s, and mice with movement time less than 180 s were excluded after the training. On day 3 of the experiment, mice were tested for movement coordination at 10, 20, 30 and 40 min after subcutaneous administration of compound 9.
# The experimental data were expressed as mean±standard error (Means±S.E.M.), and the differences between drug treatment groups were analyzed by one-way ANOVA (Dunnett test in one-way ANOVA) for data statistics and analysis.
# [2] = system: mice; assay: Conditional position preference test (CPP); assay type: in vivo, mouse; settings: subcutaneous 10 mg/kg
# Protocol: The conditional position preference experimental device is a closed device (45×20×20 cm) assembled from transparent plexiglass plates. Two 20×20×20 cm conditional preference boxes are located at both ends of the device, with a small compartment 5×20×20 cm having a passage (5×5×5 cm) connected in the middle. On the first day of the experiment, the passage was kept open, the mice was placed into the device for 15 min, and the mice that had been explored for more than 9 min in any of the preference boxes were excluded. […] On day 5, the passage was kept opened again to ensure that the mice were free to enter into the two preference boxes, and the time that the mice stayed in the drug matching preference box within 15 minutes of the total time was recorded.
# The experimental relevant data were expressed as mean±standard error (Means±S.E.M.), and the conditional position preference score represents the time spent on the drug matching preference box on day 5 of each mouse minus the time on the first day in this preference box. Differences between groups treated with different drugs in CPP trials were analyzed by one-way ANOVA (Tukey HSD test in one-way ANOVA) for data statistics and analysis.
# [3] = system: neuralgia induced by chronic compression of the sciatic nerve in mice; assay: CCI neuralgia model (thermal and mechanical pain); assay type: in vivo, mouse
# Protocol: The chronic compression model of the sciatic nerve (CCI) was mainly used for the mouse neuralgia. The detection method uses thermal tingling instrument and electronic Von Frey tenderness instrument to simultaneously detect thermal pain and mechanical pain. Firstly, the basic pain threshold of thermal pain and mechanical pain in normal mice were determined respectively. The mice were then anesthetized with sodium pentobarbital (i.p., 80 mg/kg mouse body weight) and the mice were fixed in the prone position. The right sciatic nerve was exposed and 3 mild ligation rings were made around the sciatic nerve using a 4-0 chromic catgut, 1 mm intervals. The ligation intensity is preferably a slight tremor in the right hind leg. On the 10th day after surgery, the thermal pain sensitivity value of the right hind paw of the mouse was measured, and then compound 9 was intrathecally or subcutaneously administered, and the thermal pain threshold at different time points after administration were recorded. On the 11th day after surgery, the mechanical pain sensitivity value of the right hind paw of the mouse was measured, and then Compound 9 was intrathecally or subcutaneously administered, and the mechanical pain threshold at different time points after administration were recorded.
# The experimental data were expressed as mean±standard error (Means±S.E.M.), and the data for differences between groups treated with different drug concentrations were analyzed by one-way ANOVA (Bonferroni test in one-way ANOVA) for statistics and analysis, **P<0.01, ***P<0.001 represents that there was a significant difference between the pain threshold value of the drug-treated group and that of the saline group.
# First, the maximum analgesic effect (MPE) was calculated, MPE (%)=100×[(pain threshold after administration−pain sensitivity value of the hind paw in surgical side)/(basic pain threshold−pain sensitivity value of the hind paw in surgical side)].
# [4] = system: postoperative pain in mice; assay: Postoperative pain model (electronic Von Frey); assay type: in vivo, mouse; settings: mechanical pain threshold
# Text: The postoperative pain in mice was detected mainly by an electronic Von Frey tenderness instrument. The basic pain threshold of normal mice was first determined, and then the mice were anesthetized with isoflurane. With the back facing up, the right hind paw of the mouse was fixed and disinfected with iodine solution. A 5 mm longitudinal incision was made with a No. 11 blade at 2 mm from the ankle to expose the plantaris, blood vessels and fascia, and the wound was sutured using a 4-0 surgical suture and a small suture needle, and the wound is coated with erythromycin ointment. The mechanical pain sensitivity value of the surgical foot of the mice was measured 6 h after the surgery, and then compound 9 was intrathecally or intraperitoneally given, and the mechanical pain threshold at different time points after administration were recorded.
# The experimental data were expressed as mean±standard error (Means±S.E.M.), and the data for differences between groups treated with different drug concentrations were analyzed by one-way ANOVA (Bonferroni test in one-way ANOVA) for statistics and analysis, ***P<0.001 represents that there was a significant difference between the MPE value of the drug-treated group and that of the saline group.
# First, the maximum analgesic effect (MPE) was calculated, MPF. […]
# [5] = system: gastrointestinal movement of male mice of Kunming strain; assay: Gastrointestinal movement in vivo (activated carbon suspension); set-up: species or system mouse
# Protocol: Male mice of Kunming strain, weighing 26±2 g. The commonly used toner detection method was used in the detection of astrointestinal movement in vivo. The specific experimental procedure was: before the gastrointestinal movement experiment, the mice were fasted for 16 hours (free drinking during fasting), then the drug was injected through spinal cord or subcutaneously, and after 15 minutes, the activated carbon suspension prepared in advance (a physiological saline suspension containing 5% of activated carbon and 10% gum arabic) was orally perfused into the stomach in a volume of 0.1 ml per 10 g of body weight. After 30 minutes from the perfusion of activated carbon suspension, the animals were sacrificed by cervical dislocation, and then the small intestine of the animal from the pylorus to the cecum was carefully taken out. The total lengths of the small intestine from the pylorus to the cecum and the furthest distance from which the activated carbon suspension moves were measured.
# Gastrointestinal movement test results were evaluated by a percentage of gastrointestinal movement, and the percentage of gastrointestinal movement per mouse was calculated by dividing the moving distance of the activated carbon suspension by the total length of the small intestine. The relevant data were expressed as mean of the percentage of gastrointestinal movement±standard error (Means±S.E.M.), the data for differences between groups treated with different drug concentrations were analyzed by one-way ANOVA (Dunnett test in one-way ANOVA) for statistics and analysis, ***P<0.001 represented that there was a significant difference between the percentage of gastrointestinal movement of the drug-treated group and that of the saline group.
smiles,measurement,setting,value
"C[C@@H](NC(=O)[C@@H](N)Cc1ccc(O)cc1)C(=O)NCC(=O)N(C)[C@@H](Cc1ccccc1)C(=O)NCC(=O)N1CCC[C@H]1C(=O)N[C@@H](CCC(N)=O)C(=O)N[C@@H](CCCNC(=N)N)C(=O)N[C@@H](Cc1ccccc1)C(N)=O [Compound 9, Tyr-D-Ala-Gly-NMe-Phe-Gly-Pro-Gln-Arg-Phe-NH2] (H-Y[dA]G[NMeF]GPQRF-NH2)",effect on movement coordination,[1],did not significantly affect movement coordination
same,conditional positional preference,[2],produced significant conditional positional preference; also recorded: lower degree of preference than morphine
same,"analgesic ED50 value, thermal hyperalgesia",[3]; intrathecal,1.74 (1.38-2.20) pmol
same,"analgesic ED50 value, mechanical hyperalgesia",[3]; subcutaneous,3.51 (3.28-3.74) mg/kg
same,"analgesic ED50 value, thermal hyperalgesia",[3]; subcutaneous,3.12 (2.77-3.51) mg/kg
same,ED50 value of analgesia for postoperative pain,[4]; intraperitoneal,26.15 (22.62-30.23) mg/kg
same,ED50 value of analgesia for postoperative pain,[4]; intrathecal,8.63 (6.70-11.11) pmol
same,percentage of gastrointestinal movement,[5]; 10 mg/kg (compound 9 subcutaneous; morphine positive control),37.10%
same,dose with significant inhibitory effect on gastrointestinal movement,[5]; intrathecal injection,≥ 300 pmol
same,percentage of gastrointestinal movement,"[5]; intrathecal injection, 100 pmol",45.71%
same,percentage of gastrointestinal movement,"[5]; intrathecal injection, 300 pmol",31.40%
same,percentage of gastrointestinal movement,"[5]; intrathecal injection, 500 pmol",21.67%
same,percentage of gastrointestinal movement,"[5]; subcutaneous, 1 mg/kg",47.28%
same,percentage of gastrointestinal movement,"[5]; subcutaneous, 30 mg/kg",33.12%
same,percentage of gastrointestinal movement,"[5]; subcutaneous, 100 mg/kg",24.14%
